Measurements taken from patent US10336768B2, “Pyrimidine compounds and methods using the same” (Yuma Therapeutics, Inc., priority 2014, dated 2019).
Values joined by “and” are separate entries in the source; they are usually repeats but may differ in a detail not shown here. Equal entries are not always repeated. Where two headings read alike, the source gives them in different places. Marks after values point to notes of the source that are not given here.

Experiments:
His-tagged-Hsp90 = test system: T1, His-tagged-Hsp90; assay: Hsp90 biochemical assay (AlphaLISA); assay type: binding
T1 construct: fused on or other part: His tag (captured on Ni2+-coated beads)
Procedure: This assay employs biotinylated geldanamycin, His-tagged-Hsp90, and Ni^+2 coated beads. This assay is homogenous and miniaturized to 384-well plates. Measurement of binding activity was performed on an Envision reader. […] This assay is the primary assay for evaluating compounds of the invention.

SH-SY5Y-hTAU441 cells = assay: Cytotoxicity assay (MTT); assay type: cell-based; conditions: FIG. 6A
Procedure: SH-SY5Y-hTAU441 cell viability was determined using the MTT assay. […] SH-SY5Y cell viability may also be measured after 24 and 48 h with the CellTiter-Glo® assay that measures ATP-levels. In addition, cytotoxicity may be assessed using the Celigo® with live cell microscopic imaging and a GE InCell Analyzer 2000 to measure multiple outcomes including apoptosis markers, membrane permeability, and mitochondrial activity.

[1] = Mouse liver microsomal stability; assay type: in vitro ADME; conditions: mouse liver microsomes; read-out: microsomal stability T1/2
Procedure: Metabolic stability of the compounds of the invention was assessed by monitoring their degradation in mouse liver microsomes.

[2] = test system: P-glycoprotein (P-gp, MDR1); assay: MDR1-MDCK permeability assay; assay type: in vitro ADME; conditions: dog, apical to basal
Text: (§1) Compounds may be assessed in MDR1-MDCK permeability assay or Caco-2 permeability assay to determine their permeability. Apical (A) to basal (B) permeability >3×10^−6 cm/sec and B→A/A→B asymmetry <3 for a compound are considered acceptable predictors of brain penetration, and compounds having such properties are unlikely to be P-glycoprotein (P-gp) substrates. Compound 20 has shown excellent permeability in MDR1-MDCK assay (A-B=28×10^−6 cm/s) with low asymmetry (B→A/A→B asymmetry=0.9).

P-gp (MDR1) = assay: MDR1-MDCK permeability assay; assay type: in vitro ADME; conditions: dog, read-out: B→A/A→B asymmetry
Text: as §1

[3] = Mouse pharmacokinetics, plasma levels (LC-MS/MS); assay type: in vivo; conditions: for AUC(0-t): read-out: AUC(0-8 h); for half-life: read-out: Half life (t1/2) (converted)
Procedure: Plasma and brain samples were taken pre-dose and at post dose time points of pre-dose, 15 and 30 minutes, 1, 2, and 8 hours. The pre-dose group was represented by 5 animals, whereas the post-dose groups were represented by 3 animals.
Bioanalysis of mouse plasma samples for compound 20 was conducted by protein precipitation and LC-MS/MS with compound 22 as the internal standard. The method was based on a ‘generic assay’ and some method development was conducted to tailor that assay to the particular compound and internal standard. The eventual non-GLP assay was first tested by analyzing a bioanalytical run with spiked mouse plasma samples. The qualification run passed by the run acceptance criteria (see below). Bioanalysis was then conducted of plasma sample extracts and of brain sample homogenate extracts, using a calibration and quality control samples spiked in mouse plasma. The assay is described below.
Compound 20 and compound 22 were extracted from the mouse plasma matrix by protein precipitation. To 20.0 μL of sample was added 10.0 μL of internal standard working solution (1000 ng/mL in MeOH) and 200 μL of MeCN. The mixture was vortexed (5 sec) and centrifuged (14000 rpm, 5 min). The supernatant was then recovered and evaporated to dryness. The residue was redissolved in 100 μL of redissolving solution (80:20 v:v of mobile phases A:B). For analysis, 20.0 μL was injected in to the LC-MS/MS system.
All chromatography was done with a type 1100 liquid chromatograph (Agilent), equipped with an auto-injector. The analytical column was an Xbridge C18 3.5 μm 2.1×50 mm (Waters), employed at 50° C. The mobile phase was a gradient, composed of solvent A:1 g/L ammonium acetate in Milli-Q water, and solvent B: MeCN.
All experiments were done on an API 3000 triple quadrupole instrument (AB Sciex), operated in positive turbo-ionspray mode (‘TIS+’). The instrument parameters had been optimized during method development.
[…] Two sets of calibration samples were used, one set placed before and the other placed after the study samples. In addition, QC samples at 5 levels (two samples at each level) were included in the run, as performance indicators and for run acceptance.
Evaluation of pharmacokinetic parameters was conducted by calculation from the mean concentration (n=5 pre-dose, n=3 post-dose) at each time point.

Hsp70 = assay: Hsp90 cell based functional assay (Western blot for Hsp70, Hsp90)
Procedure: Cells were treated with compounds of the invention for 24 h and then lysed in a buffer containing NP-40, orthovanadate, and protease inhibitors. Western blots were performed with antibodies specific to Hsp70, Hsp90, or actin (as control).

[4] = mouse, plasma, Table 11, footnote: excluding IRN12 result
[5] = mouse, plasma, Table 12, footnote: including IRN12 result

With `Nc1nc(-c2c(Cl)cc(Cl)c3c2CCO3)c2[nH]ccc2n1` [compound 20, 4-(5,7-Dichloro-2,3-dihydrobenzofuran-4-yl)-5H-pyrrolo[3,2-d]pyrimidin-2-amine] the IC50 (His-tagged-Hsp90; AlphaLISA, FIG. 5A, read-out: Hsp90 inhibitory activity IC50) was 0.74 ± 0.1 µM, the IC50 (His-tagged-Hsp90; IC50 class, AlphaLISA (primary assay), read-out: Hsp90 inhibitory activity) was < 1 µM and the cell viability (SH-SY5Y-hTAU441 cells) was “did not affect cell viability”. For the same compound, the half-life [1] was 26 min, the Papp A→B [2] was 280 nm/s and the efflux ratio (P-gp (MDR1)) was 0.9. For the same compound, the “Mean Group Concentration, plasma” value ([3]; 0.25 h) was “^a Excluding IRN 12 result: 14950 ng/mL”, the “Plasma concentration, individual animals” value ([3]; 15 minutes post dose (B_0.25), values above 8000 ng/mL out of range, indicative) was 17,900 ^b ng/mL and 12,000 ^b ng/mL and the “Plasma concentration, individual animals” value ([3]; 30 minutes post dose (C_0.5), out of range (>8000 ng/mL), indicative) was 11,500 ^b ng/mL and 10,500 ^b ng/mL and 11,100 ^b ng/mL. For the same compound, the “Plasma concentration, individual animals” value ([3]; 1 hour post dose (D_1)) was 7,130 ng/mL and 7,470 ng/mL, the “Plasma concentration, individual animals” value ([3]; 2 hours post dose (E_2)) was 4,180 ng/mL and 4,440 ng/mL and the “Plasma concentration, individual animals” value ([3]; 8 hours post dose (F_8)) was 99.3 ng/mL and 22.5 ng/mL and 21.9 ng/mL. For the same compound, the Kelimination ([3]; Table 11, footnote: excluding IRN12 result) was 0.725 per hour (h^−1), the Kelimination ([3]; Table 12, footnote: including IRN12 result) was 0.730 per hour (h^−1) and the concentration at 0.25 h ([3]; mouse, plasma, 0.25 h, n=3 incl. IRN 12, read-out: Mean Group Concentration, plasma) was 9.97 µg/mL. The concentration at 15 min ([3]; mouse, plasma, 15 minutes post dose (B_0.25), values above 8000 ng/mL out of range, indicative, read-out: Plasma concentration, individual animals) was 0.00266 µg/mL, the concentration at 0.5 h ([3]; mouse, plasma, 0.50 h, read-out: Mean Group Concentration, plasma) was 11 µg/mL and the concentration at 1 h ([3]; mouse, plasma, 1.00 h, read-out: Mean Group Concentration, plasma) was 7.16 µg/mL. The concentration at 1 h ([3]; mouse, plasma, 1 hour post dose (D_1), read-out: Plasma concentration, individual animals) was 6.89 µg/mL, the concentration at 2 h ([3]; mouse, plasma, 2.00 h, read-out: Mean Group Concentration, plasma) was 4.26 µg/mL and the concentration at 2 h ([3]; mouse, plasma, 2 hours post dose (E_2), read-out: Plasma concentration, individual animals) was 4.15 µg/mL. The concentration at 8 h ([3]; mouse, plasma, 8.00 h, read-out: Mean Group Concentration, plasma) was 0.0479 µg/mL, the AUC(0-inf) [3, 4] was 27.1 µg·h/mL and the Cmax [3, 4] was 11 µg/mL. The Tmax [3, 4] was 30 min, the AUC(0-t) [3, 4] was 27 µg·h/mL and the half-life [3, 4] was 57.6 min. The AUC(0-inf) [3, 5] was 28.3 µg·h/mL, the Cmax [3, 5] was 15 µg/mL and the Tmax [3, 5] was 15 min. For the same compound, the AUC(0-t) [3, 5] was 28.3 µg·h/mL, the half-life [3, 5] was 57 min and the “expression of Hsp70” value (Hsp70; Western blot, FIG. 5B) was “increase in the expression of Hsp70”. For the same compound, the “expression of Hsp90” value (Hsp70; Western blot, FIG. 5B, relative to variation in concentration) was “expression of Hsp90 remains unchanged” and the EC50 (Hsp70; read-out: Hsp 70 agonist activity) was > 10 µM.
